Measurements published in BindingDB's records for doi:10.3109/14756366.2013.804072 (University of Calgary, 2014).

Legend:
Test in all cases: CA Inhibition Assay
Settings in all cases: pH 7.5; 25 °C
Carbonic anhydrase 14 = Carbonic anhydrase 14 (Homo sapiens, UniProt Q9ULX7)
Method: (§1) An Applied Photophysics stopped-flow instrument has been used for assaying the CA catalysed CO2 hydration activity. […] The CO2 concentrations ranged from 1.7 to 17 mM for the determination of the kinetic parameters and inhibition constants. […] The uncatalyzed rates were determined in the same manner and subtracted from the total observed rates. Stock solutions of inhibitor (0.1 mM) were prepared in distilled deionized water and dilutions up to 0.01nM were done thereafter with distilled-deionized water.

Carbonic anhydrase 12 = Carbonic anhydrase 12 (Homo sapiens, UniProt O43570)
Method: as §1

Carbonic anhydrase 6 = Carbonic anhydrase 6 (Homo sapiens, UniProt P23280)
Method: as §1

Carbonic anhydrase 13 = Carbonic anhydrase 13 (Homo sapiens, UniProt Q8N1Q1)
Method: as §1

[1] = biological target: Carbonic anhydrase 5A, mitochondrial (Homo sapiens, UniProt P35218)
Method: as §1

[2] = biological target: Carbonic anhydrase 5B, mitochondrial (Homo sapiens, UniProt Q9Y2D0)
Method: as §1

Carbonic anhydrase 4 = Carbonic anhydrase 4 (Homo sapiens, UniProt P22748)
Method: as §1

Carbonic anhydrase 3 = Carbonic anhydrase 3 (Homo sapiens, UniProt P07451)
Method: as §1

Carbonic anhydrase 2 = Carbonic anhydrase 2 (Homo sapiens, UniProt P00918)
Method: as §1

Carbonic anhydrase 1 = Carbonic anhydrase 1 (Homo sapiens, UniProt P00915)
Chain of Carbonic anhydrase 1 (P00915 whole entry): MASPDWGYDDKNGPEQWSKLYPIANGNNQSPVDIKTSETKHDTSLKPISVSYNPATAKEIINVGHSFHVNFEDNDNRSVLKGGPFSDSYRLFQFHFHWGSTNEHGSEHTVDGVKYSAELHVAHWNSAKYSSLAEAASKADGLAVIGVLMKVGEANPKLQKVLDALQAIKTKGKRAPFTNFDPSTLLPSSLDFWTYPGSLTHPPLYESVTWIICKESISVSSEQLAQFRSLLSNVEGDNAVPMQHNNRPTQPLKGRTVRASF
Method: as §1

Chain of Carbonic anhydrase 14 (Q9ULX7 whole entry): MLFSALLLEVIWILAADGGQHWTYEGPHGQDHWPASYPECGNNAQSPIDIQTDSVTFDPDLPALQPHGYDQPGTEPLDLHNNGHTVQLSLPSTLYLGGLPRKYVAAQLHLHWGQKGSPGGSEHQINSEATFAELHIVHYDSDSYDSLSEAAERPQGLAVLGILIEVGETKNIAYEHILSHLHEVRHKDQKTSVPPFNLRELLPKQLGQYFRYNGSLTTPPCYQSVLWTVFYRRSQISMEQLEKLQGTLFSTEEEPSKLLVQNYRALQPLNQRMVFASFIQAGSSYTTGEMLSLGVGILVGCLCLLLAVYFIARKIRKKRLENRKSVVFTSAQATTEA
Chain of Carbonic anhydrase 6 (P23280 whole entry): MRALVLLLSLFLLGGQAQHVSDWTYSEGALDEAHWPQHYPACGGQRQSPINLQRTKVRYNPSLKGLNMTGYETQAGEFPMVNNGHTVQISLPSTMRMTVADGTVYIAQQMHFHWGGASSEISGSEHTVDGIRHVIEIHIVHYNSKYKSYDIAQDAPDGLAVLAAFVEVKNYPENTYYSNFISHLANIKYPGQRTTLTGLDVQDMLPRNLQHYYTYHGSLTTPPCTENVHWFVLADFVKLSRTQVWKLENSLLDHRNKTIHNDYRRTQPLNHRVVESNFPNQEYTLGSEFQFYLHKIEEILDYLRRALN
Chain of Carbonic anhydrase 5B, mitochondrial (Q9Y2D0 whole entry): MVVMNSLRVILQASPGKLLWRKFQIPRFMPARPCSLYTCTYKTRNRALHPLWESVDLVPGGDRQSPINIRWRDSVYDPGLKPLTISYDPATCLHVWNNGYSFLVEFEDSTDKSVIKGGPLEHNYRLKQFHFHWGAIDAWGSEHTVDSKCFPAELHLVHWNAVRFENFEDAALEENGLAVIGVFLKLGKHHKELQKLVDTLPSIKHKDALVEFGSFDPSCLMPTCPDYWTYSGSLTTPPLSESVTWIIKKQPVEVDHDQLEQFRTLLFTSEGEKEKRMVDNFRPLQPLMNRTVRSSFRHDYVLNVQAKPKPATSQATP
Chain of Carbonic anhydrase 3 (P07451 whole entry): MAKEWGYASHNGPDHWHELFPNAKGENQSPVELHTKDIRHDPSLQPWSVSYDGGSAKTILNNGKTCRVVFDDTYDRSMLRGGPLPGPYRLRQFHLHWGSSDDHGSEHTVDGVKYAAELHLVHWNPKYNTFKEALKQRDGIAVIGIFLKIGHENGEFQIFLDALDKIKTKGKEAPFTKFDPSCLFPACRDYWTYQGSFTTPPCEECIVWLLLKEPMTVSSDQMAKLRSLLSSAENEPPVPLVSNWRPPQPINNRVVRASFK
Chain of Carbonic anhydrase 13 (Q8N1Q1 whole entry): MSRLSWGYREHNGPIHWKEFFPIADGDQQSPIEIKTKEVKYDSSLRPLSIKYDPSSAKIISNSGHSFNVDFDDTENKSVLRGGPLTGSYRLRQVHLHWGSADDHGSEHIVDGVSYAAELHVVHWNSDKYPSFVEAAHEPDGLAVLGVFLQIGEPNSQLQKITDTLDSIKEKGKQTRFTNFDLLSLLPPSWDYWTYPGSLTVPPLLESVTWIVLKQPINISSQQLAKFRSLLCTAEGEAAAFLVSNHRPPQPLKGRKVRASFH
Chain of Carbonic anhydrase 12 (O43570 whole entry): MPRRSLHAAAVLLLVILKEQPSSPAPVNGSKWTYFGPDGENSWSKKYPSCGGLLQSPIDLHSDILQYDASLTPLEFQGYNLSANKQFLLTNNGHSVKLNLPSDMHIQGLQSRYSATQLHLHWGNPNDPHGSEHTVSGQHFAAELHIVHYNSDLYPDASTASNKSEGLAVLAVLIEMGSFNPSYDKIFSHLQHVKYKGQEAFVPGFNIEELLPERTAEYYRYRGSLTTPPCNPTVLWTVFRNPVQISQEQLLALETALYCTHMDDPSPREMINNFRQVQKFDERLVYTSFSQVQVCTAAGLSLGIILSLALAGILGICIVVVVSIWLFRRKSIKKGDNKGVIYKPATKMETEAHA
Chain of Carbonic anhydrase 4 (P22748 whole entry): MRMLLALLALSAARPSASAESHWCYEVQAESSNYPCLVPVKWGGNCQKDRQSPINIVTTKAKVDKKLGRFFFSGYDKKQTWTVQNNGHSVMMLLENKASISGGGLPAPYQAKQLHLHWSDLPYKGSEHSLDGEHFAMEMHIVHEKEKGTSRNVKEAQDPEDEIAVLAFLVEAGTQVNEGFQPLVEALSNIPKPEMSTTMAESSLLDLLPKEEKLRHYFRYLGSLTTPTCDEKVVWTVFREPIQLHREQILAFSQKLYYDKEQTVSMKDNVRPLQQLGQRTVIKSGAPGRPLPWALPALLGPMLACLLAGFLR
Chain of Carbonic anhydrase 5A, mitochondrial (P35218 whole entry): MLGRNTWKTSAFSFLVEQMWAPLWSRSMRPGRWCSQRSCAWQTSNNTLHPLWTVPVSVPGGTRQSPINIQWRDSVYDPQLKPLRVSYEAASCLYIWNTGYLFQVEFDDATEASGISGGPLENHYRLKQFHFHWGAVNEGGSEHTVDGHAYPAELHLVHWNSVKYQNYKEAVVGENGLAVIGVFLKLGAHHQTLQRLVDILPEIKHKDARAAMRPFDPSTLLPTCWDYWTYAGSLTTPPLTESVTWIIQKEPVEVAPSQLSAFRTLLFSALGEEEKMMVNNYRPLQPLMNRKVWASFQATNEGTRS

| Compound | Ki (Carbonic anhydrase 14) | Ki (Carbonic anhydrase 12) | Ki (Carbonic anhydrase 6) | Ki (Carbonic anhydrase 13) | Ki [1] | Ki [2] | Ki (Carbonic anhydrase 4) | Ki (Carbonic anhydrase 3) | Ki (Carbonic anhydrase 2) | Ki (Carbonic anhydrase 1) |
| --- | --- | --- | --- | --- | --- | --- | --- | --- | --- | --- |
| NS(=O)(=O)c1cc(Cl)c(Cl)c(S(N)(=O)=O)c1 [Dichlorophenamide, DCP] | 0.34 µM |  |  |  |  |  |  |  |  |  |
| CC1(C)[C@@H](O)C[C@H]2[C@](C)(O)[C@@H]3CCC4[C@@H](O)C3(C[C@@H](O)[C@@]21O)C[C@@]4(C)O (stereo partly specified) [Grayanotoxin III (GTX3)] | 1.47 µM | 2.15 µM | 0.86 µM | 0.69 µM | 1.14 µM | 0.74 µM | 0.51 µM | 0.76 µM | 6.13 µM | 8.01 µM |
